Key:
[1] = tested on: HIV transcripts (TAR, LLTR, Pol, PolyA, TatRev); experiment: Cell-associated HIV transcripts (RT-ddPCR) 6 days after anti-CD3/CD28 activation of PBMCs from ART-suppressed PWH; type: cell-based; conditions: DMSO+CD3/28 = 1, Fig 4B, C and D
Procedure: Next, we evaluated the ability of the candidate LPAs to sustain the inhibitory effects during a prolonged ex vivo culture. To this end, PBMCs were cultured in the presence of individual drugs in DMSO or in DMSO alone as control, activated (anti-CD3/CD28), and harvested after 6 days. […] However, we decided to test the drug on day 6 because extra cells were available from some study participants.
Each drug was tested in PBMCs from at least 6 ART-suppressed study participants (except for KRIBB11, n = 5). PBMCs were aliquoted into wells at 6 × 10^6 cells/well. After activation, the cells were cultured with antiretrovirals in the presence of individual drugs in DMSO or DMSO alone as control. All conditions were tested in the presence of CD3/28 T cell–activating beads, except for the unactivated DMSO condition. After 6 days, total cellular RNA was extracted, and the progression through different stages of HIV transcription was quantified by measuring the levels of initiated (TAR), 5′ elongated (LLTR), midtranscribed/unspliced (Pol), completed (PolyA), and multiply spliced (TatRev) HIV transcripts. (A) The levels of all HIV transcripts were normalized to 1 μg of total cellular RNA and expressed as a percentage of the activated DMSO control (% of activated DMSO). Medians are shown as well as the individual values per study participant in different colors. (B–D) The effect of each drug on HIV transcriptional progression after activation was analyzed by the ratio of one HIV transcript to another. Ratios are independent of HIV infection frequency or normalization to cell numbers. Shown are the proportion of (B) all HIV transcripts that are elongated (LLTR/TAR), (C) elongated HIV transcripts that are completed (PolyA/LLTR), and (D) completed transcripts that are multiply spliced (TatRev/PolyA). Medians and IQR are presented, along with the individual values per study participant in different colors. P values were calculated using Wilcoxon’s signed-rank test: *P < 0.05.
PBMCs were isolated from fresh venous blood from 16 ART-suppressed HIV-infected study participants using Ficoll density gradient centrifugation. The cells were seeded at 6 × 10^6 cells/well and cultured with antiretrovirals (nevirapine and indinavir) to prevent new infection. On the next day, PBMCs were activated with anti-CD3/CD28–coated beads (Invitrogen) in the presence of 20 U/mL IL-2 and individual drugs in DMSO or DMSO alone as a control. Since we were limited in the PBMC yield per study participant, different study participants were used for different experiments (such as the initial screen, dose response, different time points, and studies in activated vs. unstimulated cells). In addition, the yields of PBMCs were sometimes insufficient to test all drugs for a given question or experiment.
(§1) For quantification of cell-associated HIV transcripts, PBMCs were harvested either after 24 hours or after 6 days. The cell viabilities were measured by trypan blue staining; then the cells were pelleted by centrifuging at 300g for 6 minutes and stored at –80°C. For quantification of virion-associated HIV RNA, cell culture supernatant was collected from 6 × 10^6 PBMCs that were treated and activated for 6 days as described above. Residual cells and cellular debris were subsequently removed from the supernatant by differential centrifugation (300g for 6 minutes, then 20,000g for 10 minutes), and the supernatant was stored at –80°C.
Total cellular DNA and RNA were extracted in parallel using Trireagent (Molecular Research Center) according to the manufacturer’s instructions, except for study participants 2147 and 2461 (Figure 4), for whom DNA and RNA were extracted using the QIAGEN AllPrep DNA/RNA/miRNA Universal Kit with on-column DNase I treatment of the RNA and the manufacturer’s modification to enhance recovery of short transcripts.

PBMCs = experiment: Cell viability by trypan blue staining after 24 hours; type: cell-based, human; design: key to Viability (dose-response): % of activated DMSO control viability; conditions: for Viability (dose-response): 1 participant per drug, in % (unit assumed)
Procedure: Figure 1 Screening of candidate LPAs by measuring the change in multiply spliced HIV transcripts after activation. Each drug was tested in PBMCs from 2 ART-suppressed study participants (denoted in the legend by varying symbol shapes). PBMCs were aliquoted into wells at 6 × 10^6 cells/well. After activation, the cells were cultured with antiretrovirals in the presence of individual drugs in DMSO or DMSO alone as control. All conditions were tested in the presence of CD3/28 T cell–activating beads, except for the unactivated DMSO condition. (A) After 24 hours, the viability was measured by trypan blue staining and then normalized to the levels of the activated DMSO (% of activated DMSO). Bars indicate medians. (B) Total cellular RNA was extracted, and the levels of multiply spliced HIV transcripts (TatRev) were measured by RT-ddPCR, normalized to 1 μg of total cellular RNA, and expressed as a percentage of the activated DMSO control (% of activated DMSO). RT-dd, reverse transcription digital droplet; vRNA, viral RNA; HAT, histone acetyltransferase.
as §1

In the case of `CCc1cnn2c(NCc3ccc[n+]([O-])c3)cc(N3CCCC[C@H]3CCO)nc12` [dinaciclib], the LLTR/TAR ([1]; participant 150b) is reported as 0.1874, the PolyA/LLTR ([1]; participant 150b) is reported as 1.735 and the TatRev/PolyA ([1]; participant 150b) is reported as 1.49. The LLTR/TAR ([1]; participant 2027) was 0.2578, the PolyA/LLTR ([1]; participant 2027) was 0.8564 and the TatRev/PolyA ([1]; participant 2027) was 0.1946. It also gave an LLTR/TAR ([1]; participant 2147a) of 2.005, a PolyA/LLTR ([1]; participant 2147a) of 0.4014 and a TatRev/PolyA ([1]; participant 2147a) of 0.7191. For the same compound, the LLTR/TAR ([1]; participant 2161) was 1.155, the PolyA/LLTR ([1]; participant 2161) was 1.48 and the TatRev/PolyA ([1]; participant 2161) was 1.061. The LLTR/TAR ([1]; participant 2461) was 2.038, the PolyA/LLTR ([1]; participant 2461) was 3.944 and the LLTR/TAR ([1]; participant 2750) was 1.778. The PolyA/LLTR ([1]; participant 2750) was 2.886, the TatRev/PolyA ([1]; participant 2750) was 0.2646 and the “Viability (dose-response)” value (PBMCs; dose 1 nM) was 89.474. For the same compound, the “Viability (dose-response)” value (PBMCs; dose 4 nM) was 89.815, the “Viability (dose-response)” value (PBMCs; dose 8 nM) was 89.726 and the “Viability (Fig 1A)” value (PBMCs; study participant 150a) was 96.36 % of activated DMSO. For the same compound, the “Viability (Fig 1A)” value (PBMCs; study participant 152) was 99.43 % of activated DMSO.

mithramycin A gave an LLTR/TAR ([1]; participant 150b) of 3.173, a PolyA/LLTR ([1]; participant 150b) of 0.3062 and a TatRev/PolyA ([1]; participant 150b) of 1.15. The LLTR/TAR ([1]; participant 1379) was 7.408, the PolyA/LLTR ([1]; participant 1379) was 0.07562 and the TatRev/PolyA ([1]; participant 1379) was 0. It also gave an LLTR/TAR ([1]; participant 1713) of 1.88, a PolyA/LLTR ([1]; participant 1713) of 1.25 and a TatRev/PolyA ([1]; participant 1713) of 0. The LLTR/TAR ([1]; participant 2147b) was 0.4766, the PolyA/LLTR ([1]; participant 2147b) was 0.7007 and the TatRev/PolyA ([1]; participant 2147b) was 0. It also gave an LLTR/TAR ([1]; participant 2256) of 1.969, a PolyA/LLTR ([1]; participant 2256) of 0 and an LLTR/TAR ([1]; participant 2750) of 4.292. The PolyA/LLTR ([1]; participant 2750) was 1.638, the TatRev/PolyA ([1]; participant 2750) was 0.3964 and the LLTR/TAR ([1]; participant 5557) was 0.2056. For the same compound, the PolyA/LLTR ([1]; participant 5557) was 46.0561 and the TatRev/PolyA ([1]; participant 5557) was 3.456.

In the case of `CN1CC[C@H](c2c(O)cc(O)c3c(=O)cc(-c4ccccc4Cl)oc23)[C@H](O)C1` [alvocidib], the LLTR/TAR ([1]; participant 150b) is reported as 0.5959, the PolyA/LLTR ([1]; participant 150b) is reported as 1.023 and the TatRev/PolyA ([1]; participant 150b) is reported as 0.12. For the same compound, the LLTR/TAR ([1]; participant 1379) was 0.8323, the PolyA/LLTR ([1]; participant 1379) was 0.9327 and the LLTR/TAR ([1]; participant 2027) was 0.4309. For the same compound, the PolyA/LLTR ([1]; participant 2027) was 0.9713, the TatRev/PolyA ([1]; participant 2027) was 0.1413 and the LLTR/TAR ([1]; participant 2147a) was 0.3521. It also gave a PolyA/LLTR ([1]; participant 2147a) of 0.4486, a TatRev/PolyA ([1]; participant 2147a) of 0.2041 and an LLTR/TAR ([1]; participant 2161) of 1.064. It also gave a PolyA/LLTR ([1]; participant 2161) of 0.55, an LLTR/TAR ([1]; participant 2256) of 0.6179 and a PolyA/LLTR ([1]; participant 2256) of 0.6868. For the same compound, the TatRev/PolyA ([1]; participant 2256) was 0.617, the LLTR/TAR ([1]; participant 2461) was 1.513 and the PolyA/LLTR ([1]; participant 2461) was 1.443. It also gave an LLTR/TAR ([1]; participant 2747) of 0, an LLTR/TAR ([1]; participant 5557) of 0.4901 and a PolyA/LLTR ([1]; participant 5557) of 0.9442. For the same compound, the “Viability (dose-response)” value (PBMCs; dose 4 nM) was 81, the “Viability (dose-response)” value (PBMCs; dose 10 nM) was 85 and the “Viability (dose-response)” value (PBMCs; dose 40 nM) was 95.181. For the same compound, the “Viability (dose-response)” value (PBMCs; dose 100 nM) was 77 and the “Viability (Fig 1A)” value (PBMCs; study participant 150a) was 98.54 % of activated DMSO.

With `N#CC[C@H](C1CCCC1)n1cc(-c2ncnc3[nH]ccc23)cn1` [ruxolitinib] the LLTR/TAR ([1]; participant 150b) was 0.6749, the PolyA/LLTR ([1]; participant 150b) was 0.4135 and the TatRev/PolyA ([1]; participant 150b) was 0.45. For the same compound, the LLTR/TAR ([1]; participant 2027) was 0.1463, the PolyA/LLTR ([1]; participant 2027) was 0.4929 and the TatRev/PolyA ([1]; participant 2027) was 0. For the same compound, the LLTR/TAR ([1]; participant 2147a) was 0.473, the PolyA/LLTR ([1]; participant 2147a) was 0.2896 and the TatRev/PolyA ([1]; participant 2147a) was 0. The LLTR/TAR ([1]; participant 2161) was 2.396, the PolyA/LLTR ([1]; participant 2161) was 0.46 and the TatRev/PolyA ([1]; participant 2161) was 0. It also gave an LLTR/TAR ([1]; participant 2461) of 3.402, a PolyA/LLTR ([1]; participant 2461) of 0 and an LLTR/TAR ([1]; participant 2747) of 0.4032. The PolyA/LLTR ([1]; participant 2747) was 1.05, the TatRev/PolyA ([1]; participant 2747) was 0 and the LLTR/TAR ([1]; participant 2750) was 1.117. The PolyA/LLTR ([1]; participant 2750) was 1.35, the TatRev/PolyA ([1]; participant 2750) was 1.555 and the “Viability (dose-response)” value (PBMCs; dose 0.4 µM) was 90.244. For the same compound, the “Viability (dose-response)” value (PBMCs; dose 1 µM) was 87.333, the “Viability (dose-response)” value (PBMCs; dose 4 µM) was 92.053 and the “Viability (dose-response)” value (PBMCs; dose 10 µM) was 89.32. For the same compound, the “Viability (Fig 1A)” value (PBMCs; study participant 150a) was 95.89 % of activated DMSO and the “Viability (Fig 1A)” value (PBMCs; study participant 152) was 102.01 % of activated DMSO.
